Molecular target: T1, WT LRRK2 (Homo sapiens, UniProt Q5S007)
T1 construct: endogenous in cells; host or cells: HEK293 (endogenous LRRK2 gene knock-in tagged with HiBit; stably expressing CMV-driven firefly luciferase)
Experiment: LRRK2 HiBit degradation assay (Nano-Glo Dual Luciferase) in HEK293 cells with HiBit-tagged endogenous LRRK2
Format: cell-based
Settings: HiBit-tagged LRRK2 in HEK293 cells, 24 hours treatment; for DC50: starting concentration 1 μM; for Dmax: maximal degradation
Method in brief: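 HEK293 cells carrying endogenous C-terminally HiBit-tagged LRRK2 and stably expressing CMV-driven firefly luciferase were treated for 24 h at 37° C with an 11-point 1:3 series from a 1 μM final top concentration. Nano-Glo Dual Luciferase read LRRK2-HiBit against firefly signal. Alamar Blue gave viability, and signals were normalized to DMSO median before curve fitting.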

T1 sequence (Q5S007 whole entry): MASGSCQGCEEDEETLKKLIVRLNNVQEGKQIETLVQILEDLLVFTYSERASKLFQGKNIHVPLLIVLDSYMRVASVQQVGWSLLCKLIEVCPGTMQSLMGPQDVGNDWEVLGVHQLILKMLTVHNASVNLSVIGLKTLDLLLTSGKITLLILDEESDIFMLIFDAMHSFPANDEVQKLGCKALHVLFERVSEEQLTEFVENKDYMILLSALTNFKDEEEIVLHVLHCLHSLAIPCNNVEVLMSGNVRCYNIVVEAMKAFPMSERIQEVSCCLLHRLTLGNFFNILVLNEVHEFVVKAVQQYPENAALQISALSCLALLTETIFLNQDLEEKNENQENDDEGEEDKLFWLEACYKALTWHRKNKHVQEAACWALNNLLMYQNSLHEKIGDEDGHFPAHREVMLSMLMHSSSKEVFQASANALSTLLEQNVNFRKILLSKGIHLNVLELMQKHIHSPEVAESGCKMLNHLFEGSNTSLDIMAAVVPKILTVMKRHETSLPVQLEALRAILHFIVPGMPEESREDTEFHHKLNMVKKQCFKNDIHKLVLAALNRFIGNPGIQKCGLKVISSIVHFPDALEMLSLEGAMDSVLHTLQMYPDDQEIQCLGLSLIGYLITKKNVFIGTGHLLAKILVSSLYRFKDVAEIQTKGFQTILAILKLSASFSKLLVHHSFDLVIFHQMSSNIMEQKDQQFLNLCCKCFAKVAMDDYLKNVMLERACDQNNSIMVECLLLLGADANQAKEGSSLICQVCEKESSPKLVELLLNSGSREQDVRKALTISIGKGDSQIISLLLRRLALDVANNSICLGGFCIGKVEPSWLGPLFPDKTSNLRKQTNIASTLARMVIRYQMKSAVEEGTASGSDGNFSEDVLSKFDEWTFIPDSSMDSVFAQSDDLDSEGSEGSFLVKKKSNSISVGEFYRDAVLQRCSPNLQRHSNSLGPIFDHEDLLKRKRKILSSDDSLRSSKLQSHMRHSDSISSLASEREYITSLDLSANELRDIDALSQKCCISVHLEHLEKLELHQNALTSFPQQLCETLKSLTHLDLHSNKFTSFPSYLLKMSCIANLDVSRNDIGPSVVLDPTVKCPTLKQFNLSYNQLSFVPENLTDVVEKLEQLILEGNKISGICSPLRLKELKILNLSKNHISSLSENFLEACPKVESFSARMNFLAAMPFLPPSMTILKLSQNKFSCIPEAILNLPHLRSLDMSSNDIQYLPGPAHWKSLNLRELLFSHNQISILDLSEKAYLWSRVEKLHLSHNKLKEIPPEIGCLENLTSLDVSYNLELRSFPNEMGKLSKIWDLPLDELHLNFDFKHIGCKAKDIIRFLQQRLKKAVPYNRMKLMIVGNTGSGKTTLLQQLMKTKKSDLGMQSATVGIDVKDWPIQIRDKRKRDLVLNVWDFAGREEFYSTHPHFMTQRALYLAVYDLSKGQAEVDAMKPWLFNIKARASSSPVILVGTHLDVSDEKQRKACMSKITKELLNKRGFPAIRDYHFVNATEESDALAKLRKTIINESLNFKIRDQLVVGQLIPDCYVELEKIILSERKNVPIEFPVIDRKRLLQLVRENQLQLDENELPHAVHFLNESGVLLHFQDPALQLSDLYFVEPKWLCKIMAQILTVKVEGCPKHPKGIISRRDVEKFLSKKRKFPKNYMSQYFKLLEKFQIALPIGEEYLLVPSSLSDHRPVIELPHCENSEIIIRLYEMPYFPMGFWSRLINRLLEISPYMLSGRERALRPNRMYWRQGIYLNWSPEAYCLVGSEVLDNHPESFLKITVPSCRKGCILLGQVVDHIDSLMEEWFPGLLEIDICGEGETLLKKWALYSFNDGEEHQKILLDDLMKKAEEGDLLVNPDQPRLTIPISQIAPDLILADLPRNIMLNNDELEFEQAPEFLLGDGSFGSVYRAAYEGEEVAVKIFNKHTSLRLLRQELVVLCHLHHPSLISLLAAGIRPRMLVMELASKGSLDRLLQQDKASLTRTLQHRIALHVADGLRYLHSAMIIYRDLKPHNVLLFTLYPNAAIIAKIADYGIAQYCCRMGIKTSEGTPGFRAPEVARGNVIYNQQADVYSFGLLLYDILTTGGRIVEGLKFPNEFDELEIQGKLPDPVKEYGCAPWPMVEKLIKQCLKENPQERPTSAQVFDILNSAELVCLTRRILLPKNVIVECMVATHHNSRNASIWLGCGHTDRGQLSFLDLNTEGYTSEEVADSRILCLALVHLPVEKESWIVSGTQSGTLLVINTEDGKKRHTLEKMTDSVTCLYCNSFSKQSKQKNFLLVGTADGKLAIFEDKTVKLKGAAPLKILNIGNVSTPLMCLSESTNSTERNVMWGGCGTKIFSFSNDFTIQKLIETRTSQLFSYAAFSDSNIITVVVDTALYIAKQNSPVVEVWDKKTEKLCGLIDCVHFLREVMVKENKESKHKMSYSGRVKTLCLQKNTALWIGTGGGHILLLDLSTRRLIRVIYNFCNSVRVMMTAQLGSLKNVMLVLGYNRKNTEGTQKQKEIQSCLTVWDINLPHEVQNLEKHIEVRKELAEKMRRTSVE

Structure (SMILES) | DC50 (Table 2) [nM] | Dmax (Table 2) [%] | Dmax (HEK293, Table 2) [%]
Cn1c(=O)n(C2CCC(=O)NC2=O)c2ccc(N3CCC(OC[C@H]4C[C@H](OC5CCN(c6cc(-c7n[nH]c8cnc(OC9(C)CC9)cc78)ncn6)CC5)C4)CC3)cc21 (single isomer, unassigned) [Compound 32, rel-3-[3-methyl-2-oxo-5-(4-{[(1r,3r)-3-[(1-{6-[5-(1-methylcyclopropoxy)-1H-pyrazolo[3,4-c]pyridin-3-yl]pyrimidin-4-yl}piperidin-4-yl)oxy]cyclobutyl]methoxy}piperidin-1-yl)-2,3-dihydro-1H-1,3-benzodiazol-1-yl]piperidine-2,6-dione] | 0.33 | 51 | 
Cn1c(=O)n(C2CCC(=O)NC2=O)c2ccc(N3CCC(O[C@H]4C[C@H](CN5CCN(c6cc(-c7n[nH]c8cnc(OC9(C)CC9)cc78)ncn6)CC5)C4)CC3)cc21 (single isomer, unassigned) [Compound 35, rel-3-(3-methyl-2-oxo-5-{4-[(1r,3r)-3-[(4-{6-[5-(1-methylcyclopropoxy)-1H-pyrazolo[3,4-c]pyridin-3-yl]pyrimidin-4-yl}piperazin-1-yl)methyl]cyclobutoxy]piperidin-1-yl}-2,3-dihydro-1H-1,3-benzodiazol-1-yl)piperidine-2,6-dione] | 0.052 |  | 50
CC(C)n1c(=O)n(C2CCC(=O)NC2=O)c2ccc(N3CCC(O[C@H]4CC[C@H](CN5CCN(c6cc(-c7n[nH]c8cnc(OC(C)(C)C)cc78)ncn6)CC5)CC4)CC3)cc21 (single isomer, unassigned) [Compound 58, rel-3-[2-oxo-3-(propan-2-yl)-5-(4-{[(1r,4r)-4-[(4-{6-[5-(tert-butoxy)-1H-pyrazolo[3,4-c]pyridin-3-yl]pyrimidin-4-yl}piperazin-1-yl)methyl]cyclohexyl]oxy}piperidin-1-yl)-2,3-dihydro-1H-1,3-benzodiazol-1-yl]piperidine-2,6-dione] | 33 |  | 70

Reference: patent US12589156B2, “Benzimidazole and benzimidazolone based protac compounds for the targeted degradation of leucine rich repeat kinase 2 (LRRK2)” (Arvinas Operations, Inc., priority 2023, dated 2026)
